Earlier results on 2 compounds are cited in patent US20240000752A1, “MICROSUSPENSION AGAINST PARASITES AND METHOD FOR OBTAINING SAME” (Ipanema Industria de Productos Veterinarios Ltda, priority 2020, published 2024).

Data set [1] relates to Ostertagia ostertagi Cooperia pectinata, Cooperia punctata, Trichostrongylus axei, Trichostrongylus colubriformis, Oesophagostomum radiatum, Haemonchus placei ….

Regarding `CCC[S+]([O-])c1ccc2[nH]c(NC(=O)OC)nc2c1` (stereo not drawn) [albendazole sulfoxide], the pka is recorded as 7.8 and the solubility in water entry is “low solubility in water”.

For `CO[C@H]1C[C@H](O[C@H]2[C@H](C)O[C@@H](O[C@@H]3/C(C)=C/C[C@@H]4C[C@@H](C[C@]5(C=C[C@H](C)[C@@H](C6CCCCC6)O5)O4)OC(=O)[C@@H]4C=C(C)[C@@H](O)[C@H]5OC/C(=C\C=C\[C@@H]3C)[C@]54O)C[C@@H]2OC)O[C@@H](C)[C@@H]1O` [doramectin], in data set [1], the “efficacy against endoparasites and ectoparasites” value is listed as “effective”.
